Consider 89 compounds from ChEMBL document CHEMBL2448811, “Comparison of the accuracy of experimental and predicted pKa values of basic and acidic compounds” (Pharm Res, 2013).

A short description of series [1]: physchem.
Series [2] in a line: physchem. This is another data set of the same source.

Where a SMILES comes first, the peptide text is derived from it.

By pKa is commonly meant the pH at which an ionisable group is half protonated. With `CC(Cc1ccc(O)c(O)c1)(NN)C(=O)O` (centres undefined), the pKa in series [1] amounted to 3.5. In turn, `CCCCC1CCN(CCCC(=O)c2ccccc2C)CC1` gave a pKa in series [1] of 7.85. In series [1], `CC1CCN(CC(=O)Nc2nc(-c3ccccc3)cs2)CC1` had a pKa of 10.5. On the same count and under the same terms, the result for `NC(=O)C1CCN(CC(=O)Nc2nc(-c3ccccc3)cs2)CC1` reads 10.2; that for `Cc1ccc(C)c(N2CCN(C3CCCC(C)C3)CC2)c1` (centres undefined), 7.16.

In the case of `Cc1cc(=O)oc2cc(O[C@@H]3O[C@H](CO)[C@@H](O)[C@H](O)[C@H]3O)ccc12`, in series [2] (pKa), the pKa was 2.82. In series [1], `O=C(O)c1ccccc1C(=O)Nc1nc(-c2ccccc2)cs1` showed a pKa of 3.4.

In series [1], `COc1ccc(C(=O)CCC(=O)O)cc1` came in with a pKa of 4.7. In series [1], `CC1CN(c2c(F)c(N)c3c(=O)c(C(=O)O)cn(C4CC4)c3c2F)CC(C)N1` (centres undefined) showed a pKa of 6.1.

With `Cc1cnc(NC(=O)CN2CCCCC2)s1`, the pKa in series [1] came out at 10.6. Regarding `O=C(O)c1ccccc1-c1ncc(-c2ccccc2)o1`, the pKa in series [1] turned out to be 2.9. Turning to `O=C(CN1CCCCC1)Nc1nc(-c2ccc(Cl)cc2)cs1`, the pKa in series [1] was found to be 10.4. In series [1], `CCOC(=O)c1csc(NC(=O)CN2CCCCC2)n1` gave a pKa of 9.9. `CN(C)CCO[C@]1(c2ccccc2)C[C@H]2CC[C@]1(C)C2(C)C`: the pKa in series [2] (pKa) turned out to be 9.61. In series [1], `Cc1nc(NC(=O)CCCC(=O)O)sc1C` registered a pKa of 2.5. Take `O=C(O)CSCC(=O)Nc1nc(-c2ccccc2)c(-c2ccccc2)s1`: the pKa in series [1] was 4.

As to `O=C(O)c1cc(-c2ccccc2)nc(O)n1`, the pKa in series [1] turned out to be 2.5. The same measure, in the same setting: the result for `FC(F)(F)c1cccc(N2CCN(C3C4CC5CC(C4)CC3C5)CC2)c1` (centres undefined) reads 7.45. The same measure, in the same setting: the result for `Nc1cc(-c2ccccc2)nc2ccc(Br)cc12` reads 7.4; that for `Nc1cc(-c2ccccc2)nc2ccc(Cl)cc12`, 7.4. In series [1], `NCc1cc(-c2ccccc2)nc2ccccc12` registered a pKa of 8.37. `O=C(CN1CCCCC1)Nc1ncc(Cc2cccc3ccccc23)s1` returned a pKa in series [1] of 10.5. For the compound `c1cnc(N2CCN(C3CC4CCC3C4)CC2)nc1` (centres undefined), in series [1], the pKa came to 8.

In the case of `CC[C@]12CCCN3CCc4c(n(c5ccccc45)[C@@](O)(C(=O)OC)C1)C32` (some centres undefined), in series [1], the pKa came out at 7.9. The same measure, in the same setting: the result for `Cc1c(Cl)cccc1-n1ncc(C(=O)Nc2nccs2)c1C1CCNCC1` reads 9.4; that for `Cc1ccc(C)c(N2CCN(C3C4CC5CC(C4)CC3C5)CC2)c1` (centres undefined), 7.6. In series [1], `Cc1ccc(C)c(N2CCN(C3CCC(C)C3)CC2)c1` (centres undefined) came in with a pKa of 7.5.

As to `Cc1ccc(C)c(N2CCN(C3CCCCCC3)CC2)c1`, the pKa in series [1] amounted to 7.54. With `CC1CCC(N2CCN(c3ccccc3F)CC2)CC1` (centres undefined), the pKa in series [1] worked out at 7.4. In turn, `Cc1ccc(-n2ncc(C(=O)Nc3nccs3)c2C2CCNCC2)cc1C` registered a pKa in series [1] of 9.5. Consider `Cc1cccc(-n2ncc(C(=O)Nc3nccs3)c2C2CCNCC2)c1`, for which, in series [1], the pKa turned out to be 9.5.

In series [1], `COc1ccc2nc(NC(=O)CN3CCC(C)CC3)sc2c1` yielded a pKa of 10. Compound `CC1CCN(CC(=O)Nc2ncc(Cc3cccc4ccccc34)s2)CC1` showed a pKa in series [1] of 10.6.

`CN(C)CCNC(=O)c1cc(-c2ccccc2)nc2ccccc12` returned a pKa in series [1] of 8.3.

`COc1cc(CN2CCC3(C=Cc4ccccc43)CC2)cc(OC)c1OC` had a pKa in series [1] of 8.4. In series [1], `COc1ccc2nc(-c3ccccc3)cc(N)c2c1` came in with a pKa of 8.7.

As for `COc1ccc2nc(NC(=O)CN3CCCCC3)sc2c1`, the pKa in series [1] was found to be 10. Consider `CO[C@@H]1[C@@H](O[C@@H]2O[C@H](C)[C@@H](O)[C@H](N(C)C)[C@H]2O)[C@@H](CC=O)C[C@@H](C)C(=O)/C=C/[C@@H]2O[C@H]2C[C@@H](C)OC(=O)C[C@H]1OC(C)=O`, for which, in series [2] (pKa), the pKa stood at 8.44. With `CC1OC(O[C@H]2/C=C/C=C/C=C/C=C/C=C/C=C/C=C/[C@H](C)[C@@H](O)[C@@H](C)[C@H](C)OC(=O)C[C@H](O)C[C@H](O)CC[C@@H](O)[C@H](O)C[C@H](O)C[C@]3(O)C[C@H](O)[C@@H](C(=O)O)[C@H](C2)O3)C(O)C(N)C1O` (some centres undefined), the pKa in series [1] was determined as 3.1. In turn, `O=C1NCN(c2ccccc2)C12CCN(CCCC(c1ccc(F)cc1)c1ccc(F)cc1)CC2` returned a pKa in series [1] of 7.7. Same read-out and setting: the result for `O=C(N[C@H]1CCCC[C@H]1C(=O)O)c1ccccc1` reads 3.3; that for `Nc1c2c(nc3ccccc13)-c1ccccc1CC2`, 8.1; that for `C=CC1=C(C(=O)O)N2C(=O)[C@@H](NC(=O)/C(=N\O)c3csc(N)n3)[C@H]2SC1`, 3.35. Turning to `N[C@@H](Cc1c[nH]c2ccccc12)C(=O)N[C@@H](Cc1ccccc1)C(=O)O` (H-Trp-Phe-OH), the pKa in series [2] (pKa) worked out at 3.18.

In series [2] (pKa), `N[C@@H](Cc1c[nH]c2ccccc12)C(=O)N[C@@H](Cc1c[nH]c2ccccc12)C(=O)O` (H-Trp-Trp-OH) came in with a pKa of 3.38. Same read-out and setting: the result for `CCCCC[C@H](O)/C=C/[C@H]1[C@H](O)CC(=O)[C@@H]1CCCCCCC(=O)O` [ALPROSTADIL] reads 4.87. For `CN(C)CCC=C1c2ccccc2CCc2ccccc21` [AMITRIPTYLINE], the pKa in series [1] was determined as 8.2.

Compound `N[C@@H](CC(=O)O)C(=O)O` [ASPARTIC ACID] yielded a pKa in series [2] (pKa) of 9.67. `CN(C)CCC(c1ccc(Br)cc1)c1ccccn1` (centres undefined) [BROMPHENIRAMINE] showed a pKa in series [1] of 10.1. The compound `Cn1nnnc1SCC1=C(C(=O)O)N2C(=O)[C@@H](NC(=O)[C@H](O)c3ccccc3)[C@H]2SC1` [CEFAMANDOLE] displayed a pKa in series [1] of 3.4. Regarding `CCN(CC)C(=O)Nc1ccc(OCC(O)CNC(C)(C)C)c(C(C)=O)c1` (centres undefined) [CELIPROLOL], the pKa in series [2] (pKa) was found to be 9.66. In turn, `CCN(CC)CCOC(=O)c1ccc(N)cc1Cl` [CHLOROPROCAINE] gave a pKa in series [1] of 9. `CN(C)CCCN1c2ccccc2CCc2ccc(Cl)cc21` [CLOMIPRAMINE] returned a pKa in series [1] of 9.1.

Turning to `CN1CCN(C2=Nc3cc(Cl)ccc3Nc3ccccc32)CC1` [CLOZAPINE], in series [1], the pKa came out at 7.8. In series [1], `CN(C)CCC=C1c2ccccc2C=Cc2ccccc21` [CYCLOBENZAPRINE] had a pKa of 8.24. On to `CCCCC[C@H](O)/C=C/[C@H]1[C@H](O)CC(=O)[C@@H]1C/C=C\CCCC(=O)O` [DINOPROSTONE], for which the pKa in series [2] (pKa) came to 4.77. Compound `O=C(CCCN1CC=C(n2c(=O)[nH]c3ccccc32)CC1)c1ccc(F)cc1` [DROPERIDOL] came in with a pKa in series [1] of 7.6.

In series [1], `CCCCOc1ccc(C(=O)CCN2CCCCC2)cc1` [DYCLONINE] returned a pKa of 9. `C=C(CC)C(=O)c1ccc(OCC(=O)O)c(Cl)c1Cl` [ETHACRYNIC ACID]: the pKa in series [1] amounted to 3.1. In the case of `CC(NCCC(c1ccccc1)c1ccccc1)c1ccccc1` (centres undefined) [FENDILINE], the pKa in series [1] worked out at 9.3. Regarding `CC(Cc1ccc(C(C)(C)C)cc1)CN1C[C@@H](C)O[C@@H](C)C1` (some centres undefined) [FENPROPIMORPH], the pKa in series [2] is 7.34. Turning to `CC(C(=O)O)c1ccc(-c2ccccc2)c(F)c1` (centres undefined) [FLURBIPROFEN], the pKa in series [1] was found to be 4.3. Compound `O=C(CCCN1CCC(O)(c2ccc(Cl)cc2)CC1)c1ccc(F)cc1` [HALOPERIDOL] came in with a pKa in series [1] of 8.5. The same measure, in the same setting: the result for `CCn1cc(C(=O)O)c(=O)c2cc(F)c(N3CCNC(C)C3)c(F)c21` (centres undefined) [LOMEFLOXACIN] reads 5.74. `CNC[C@H](O)[C@@H](O)[C@H](O)[C@H](O)CO` [MEGLUMINE] gave a pKa in series [2] (pKa) of 9.6.

For the compound `CN1CCCCC1CCN1c2ccccc2Sc2ccc([S+](C)[O-])cc21` (centres undefined) [MESORIDAZINE], in series [1], the pKa was determined as 9.5. As to `CC(CN(C)C)CN1c2ccccc2Sc2ccccc21` (centres undefined) [METHYLPROMAZINE], the pKa in series [1] was 8.5.

`Clc1ccc2c(c1)N=C(N1CCNCC1)c1ccccc1N2` [N-DESMETHYLCLOZAPINE] yielded a pKa in series [1] of 8.9. The same measure, in the same setting: the result for `O=C(O)c1cccnc1` [NIACIN] reads 2.4; that for `CCn1cc(C(=O)O)c(=O)c2cc(F)c(N3CCNCC3)cc21` [NORFLOXACIN], 6.05; that for `O=C1CCCN1CC#CCN1CCCC1` [OXOTREMORINE], 8.4. `N[C@@H](Cc1ccccc1)C(=O)O` [PHENYLALANINE] came in with a pKa in series [2] (pKa) of 9.08. In series [1], `O=c1[nH]c2ccccc2n1C1CCN(CCCC(c2ccc(F)cc2)c2ccc(F)cc2)CC1` [PIMOZIDE] registered a pKa of 7.45.

For `CC(CN1c2ccccc2Sc2ccccc21)N(C)C` (centres undefined) [PROMETHAZINE], the pKa in series [1] was 8.7. Take `CCC(=O)O[C@](Cc1ccccc1)(c1ccccc1)[C@H](C)CN(C)C` [PROPOXYPHENE]: the pKa in series [2] worked out at 9.06.

In series [2] (pKa), `CNC(=C[N+](=O)[O-])NCCSCc1ccc(CN(C)C)o1` [RANITIDINE] returned a pKa of 8.31. `CCOc1cc(CC(=O)N[C@@H](CC(C)C)c2ccccc2N2CCCCC2)ccc1C(=O)O` [REPAGLINIDE]: in series [1], the pKa came to 3.75. In series [2] (pKa), `CC[C@H]1OC(=O)C[C@@H](O)[C@H](C)[C@@H](O[C@@H]2O[C@H](C)C[C@H](N(C)C)[C@H]2O)[C@@H](CC=O)C[C@@H](C)C(=O)/C=C/C(C)=C/[C@@H]1C` [REPROMICIN] registered a pKa of 8.83.

`CCN(C)C(=O)Oc1cccc([C@H](C)N(C)C)c1` [RIVASTIGMINE]: the pKa in series [2] turned out to be 8.8. As for `CC[C@H]1OC(=O)[C@H](C)[C@@H](O[C@H]2C[C@@](C)(OC)[C@@H](O)[C@H](C)O2)[C@H](C)[C@@H](O[C@@H]2O[C@H](C)C[C@H](N(C)C)[C@H]2O)[C@](C)(O)C[C@@H](C)/C(=N\OCOCCOC)[C@H](C)[C@@H](O)[C@]1(C)O` [ROXITHROMYCIN], the pKa in series [2] (pKa) came to 9.27. Take `CN[C@H]1CC[C@@H](c2ccc(Cl)c(Cl)c2)c2ccccc21` [SERTRALINE]: the pKa in series [1] was determined as 8. Consider `CC(C(=O)O)c1ccc(C(=O)c2cccs2)cc1` (centres undefined) [SUPROFEN], for which the pKa in series [1] was 4.3. As to `CC/C(=C(\c1ccccc1)c1ccc(OCCN(C)C)cc1)c1ccccc1` [TAMOXIFEN], the pKa in series [1] was 10. `CN(C/C=C/C#CC(C)(C)C)Cc1cccc2ccccc12` [TERBINAFINE]: the pKa in series [1] turned out to be 7.12.

Regarding `CC(C)(C)c1ccc(C(O)CCCN2CCC(C(O)(c3ccccc3)c3ccccc3)CC2)cc1` (centres undefined) [TERFENADINE], the pKa in series [1] is 8.5. The compound `CCCCNc1ccc(C(=O)OCCN(C)C)cc1` [TETRACAINE] came in with a pKa in series [1] of 8.6. Take `CC(CN(C)C)CN1c2ccccc2CCc2ccccc21` (centres undefined) [TRIMIPRAMINE]: the pKa in series [1] was 8.5. Take `Cc1ccc(/C(=C\CN2CCCC2)c2ccccn2)cc1` [TRIPROLIDINE]: the pKa in series [1] stood at 9.25. Compound `CCOC(=O)C1=C[C@]2(CC)CCCN3CCc4c(n1c1ccccc41)[C@@H]32` [VINPOCETINE] displayed a pKa in series [1] of 7.1.
